Assay results taken from patent US6753337B2, “Alkynyl containing hydroxamic acid compounds as matrix metalloproteinase/tace inhibitors” (Wyeth Holdings Corporation, priority 1999, dated 2004).
pIC50: −log10 of the molar value. Counter-ions that a name gives are not always drawn.

Key:
Type in all cases: biochemical
[1] = target: TNF-α converting enzyme (TACE) (Homo sapiens, UniProt P78536); test: Test procedure for measuring TACE inhibition (fluorescent peptidyl substrate)
Procedure: Using 96-well black microtiter plates, each well receives a solution composed of 10 μL TACE (final concentration 1 μg/mL), 70 μL Tris buffer, pH 7.4 containing 10% glycerol (final concentration 10 mM), and 10 μL of test compound solution in DMSO (final concentration 1 μM, DMSO concentration <1%) and incubated for 10 minutes at room temperature. The reaction is initiated by addition of a fluorescent peptidyl substrate (final concentration 100 μM to each well and then shaking on a shaker for 5 sec.
The reaction is read (excitation 340 nm, emission 420 nm) for 10 min. and the increase in fluorescence over time is plotted as a linear line. The slope of the line is calculated and represents the reaction rate.
The mean (x±sem) of the control rate is calculated and compared for statistical significance (p<0.05) with drug-treated rates using Dunnett's multiple comparison test.

MMP-1 = target: T1, MMP-1 (Homo sapiens, UniProt P03956); test: MMP-1 inhibition (thiopeptide or fluorescent peptide substrate); settings: printed in the MMP1 IC50 column; concentration not given
T1 sequence (P03956 100-469): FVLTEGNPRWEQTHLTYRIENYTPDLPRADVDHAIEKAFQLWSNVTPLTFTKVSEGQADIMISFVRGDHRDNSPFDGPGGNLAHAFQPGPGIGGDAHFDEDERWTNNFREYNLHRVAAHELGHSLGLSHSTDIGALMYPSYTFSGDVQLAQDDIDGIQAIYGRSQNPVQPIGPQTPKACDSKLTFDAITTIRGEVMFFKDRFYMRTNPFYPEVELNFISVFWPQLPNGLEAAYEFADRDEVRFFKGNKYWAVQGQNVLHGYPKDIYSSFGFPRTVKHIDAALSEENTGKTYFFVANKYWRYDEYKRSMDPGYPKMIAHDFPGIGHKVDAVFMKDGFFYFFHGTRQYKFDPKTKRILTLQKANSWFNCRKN
Procedure: (§1) These standard pharmacological test procedures are based on the cleavage of a thiopeptide substrates such as Ac-Pro-Leu-Gly(2-mercapto-4-methyl-pentanoyl)-Leu-Gly-OEt by the matrix metalloproteinases MMP-1, MMP-13 (collagenases) or MMP-9 (gelatinase), which results in the release of a substrate product that reacts colorimetrically with DTNB (5,5′-dithiobis(2-nitro-benzoic acid)). The enzyme activity is measured by the rate of the color increase. The thiopeptide substrate is made up fresh as a 20 mM stock in 100% DMSO and the DTNB is dissolved in 100% DMSO as a 100 mM stock and stored in the dark at room temperature. Both the substrate and DTNB are diluted together to 1 mM with substrate buffer (50 mM HEPES pH 7.5, 5 mM CaCl2) before use. The stock of enzyme is diluted with buffer (50 mM HEPES, pH 7.5, 5 mM CaCl2, 0.02% Brij) to the desired final concentration. The buffer, enzyme, vehicle or inhibitor, and DTNB/substrate are added in this order to a 96 well plate (total reaction volume of 200 μl) and the increase in color is monitored spectrophotometrically for 5 minutes at 405 nm on a plate reader and the increase in color over time is plotted as a linear line.
(§2) Alternatively, a fluorescent peptide substrate is used. In this test procedure, the peptide substrate contains a fluorescent group and a quenching group. Upon cleavage of the substrate by an MMP, the fluorescence that is generated is quantitated on the fluorescence plate reader. The assay is run in HCBC assay buffer (50 mM HEPES, pH 7.0, 5 mM Ca^+2, 0.02% Brij, 0.5% Cysteine), with human recombinant MMP-1, MMP-9, or MMP-13. The substrate is dissolved in methanol and stored frozen in 1 mM aliquots. For the assay, substrate and enzymes are diluted in HCBC buffer to the desired concentrations. Compounds are added to the 96 well plate containing enzyme and the reaction is started by the addition of substrate. The reaction is read (excitation 340 nm, emission 444 nm) for 10 min. and the increase in fluorescence over time is plotted as a linear line.
(§3) For either the thiopeptide or fluorescent peptide test procedures, the slope of the line is calculated and represents the reaction rate. The linearity of the reaction rate is confirmed (r^2>0.85). The mean (x±sem) of the control rate is calculated and compared for statistical significance (p<0.05) with drug-treated rates using Dunnett's multiple comparison test. Dose-response relationships can be generated using multiple doses of drug and IC50 values with 95% CI are estimated using linear regression.

MMP-9 = MMP-9 (Homo sapiens, UniProt P14780); test: MMP-9 inhibition (thiopeptide or fluorescent peptide substrate); settings: for MMP9 % inhibition: printed in the MMP9 IC50 column, concentration not given
Sequence of MMP-9 (P14780 94-707): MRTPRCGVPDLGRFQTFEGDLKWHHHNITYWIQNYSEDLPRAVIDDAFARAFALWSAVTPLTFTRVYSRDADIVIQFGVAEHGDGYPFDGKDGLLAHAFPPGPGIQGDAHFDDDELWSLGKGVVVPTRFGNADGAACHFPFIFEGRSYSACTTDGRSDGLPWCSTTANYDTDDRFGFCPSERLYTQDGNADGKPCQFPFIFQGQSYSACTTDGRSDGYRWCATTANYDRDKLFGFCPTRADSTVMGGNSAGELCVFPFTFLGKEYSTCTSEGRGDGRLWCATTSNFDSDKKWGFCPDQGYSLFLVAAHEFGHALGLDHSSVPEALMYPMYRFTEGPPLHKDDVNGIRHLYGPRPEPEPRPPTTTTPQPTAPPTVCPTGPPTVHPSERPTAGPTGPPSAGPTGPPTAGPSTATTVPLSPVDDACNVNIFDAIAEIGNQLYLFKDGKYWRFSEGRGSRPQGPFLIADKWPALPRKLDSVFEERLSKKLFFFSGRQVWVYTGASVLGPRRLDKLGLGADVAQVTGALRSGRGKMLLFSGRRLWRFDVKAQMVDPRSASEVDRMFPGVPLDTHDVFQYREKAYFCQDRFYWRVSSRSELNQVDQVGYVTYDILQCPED
Procedure: as §1, §2, §3

MMP-13 = MMP-13 (Homo sapiens, UniProt P45452); test: MMP-13 inhibition (thiopeptide or fluorescent peptide substrate); settings: for MMP13 % inhibition: MMP13 IC50, concentration not given; for pIC50: read-out: MMP13 IC50
Procedure: The enzyme activity is measured by the rate of the color increase. The thiopeptide substrate is made up fresh as a 20 mM stock in 100% DMSO and the DTNB is dissolved in 100% DMSO as a 100 mM stock and stored in the dark at room temperature. Both the substrate and DTNB are diluted together to 1 mM with substrate buffer (50 mM HEPES pH 7.5, 5 mM CaCl2) before use. The stock of enzyme is diluted with buffer (50 mM HEPES, pH 7.5, 5 mM CaCl2, 0.02% Brij) to the desired final concentration.
as §2, with “substrate.” for “substrate. The reaction is read (excitation 340 nm, emission 444 nm) for 10 min. and the increase in fluorescence over time is plotted as a linear line.”
For either the thiopeptide or fluorescent peptide test procedures, the slope of the line is calculated and represents the reaction rate. […] The mean (x±sem) of the control rate is calculated and compared for statistical significance (p<0.05) with drug-treated rates using Dunnett's multiple comparison test.

Sequence of TNF-α converting enzyme (TACE) (P78536 215-824): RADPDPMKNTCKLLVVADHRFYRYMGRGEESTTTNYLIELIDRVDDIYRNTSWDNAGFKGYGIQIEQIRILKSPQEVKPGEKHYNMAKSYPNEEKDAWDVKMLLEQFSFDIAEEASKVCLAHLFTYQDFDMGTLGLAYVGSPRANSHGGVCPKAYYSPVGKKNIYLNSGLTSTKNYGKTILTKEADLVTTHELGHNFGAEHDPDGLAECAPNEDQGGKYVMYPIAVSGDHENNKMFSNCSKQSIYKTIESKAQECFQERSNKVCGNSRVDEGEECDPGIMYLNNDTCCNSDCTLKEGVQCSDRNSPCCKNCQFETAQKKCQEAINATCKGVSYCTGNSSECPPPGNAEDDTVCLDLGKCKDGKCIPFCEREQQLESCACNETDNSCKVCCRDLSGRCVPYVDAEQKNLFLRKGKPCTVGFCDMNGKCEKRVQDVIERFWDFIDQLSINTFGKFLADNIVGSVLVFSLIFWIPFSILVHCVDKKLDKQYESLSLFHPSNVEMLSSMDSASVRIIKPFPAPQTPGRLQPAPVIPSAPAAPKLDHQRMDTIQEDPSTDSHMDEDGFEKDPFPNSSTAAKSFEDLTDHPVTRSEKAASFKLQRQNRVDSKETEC

SMILES	pIC50 [1]	pIC50 (MMP-13)	other results
CCCCCC#CCOc1ccc(S(=O)(=O)C2(C(=O)NO)CCN(Cc3ccc(Br)cc3)CC2)cc1 [Example 6, 1-(4-Bromo-benzyl)-4-(4-oct-2-ynyloxy-benzenesulfonyl)-piperdine-4-carboxylic acid hydroxyamide]	6.41		MMP1 % inhibition (MMP-1): 32.9%; MMP9 % inhibition (MMP-9): 58.9%; MMP13 % inhibition (MMP-13): 60%
CC#CCOc1ccc(SC2(C(=O)NO)CCN(C(=O)OC(C)(C)C)CC2)cc1 [Example 14, 4-(4-But-2-ynyloxy-phenylsulfanyl)-4-hydroxycarbamoyl-piperidine-1-carboxylic acid tert-butyl ester]			inhibition at 1 µM [1]: 67%; MMP1 % inhibition (MMP-1): 26%; MMP9 % inhibition (MMP-9): 21%; MMP13 % inhibition (MMP-13): 32%
CC#CCOc1ccc(S(=O)(=O)CC2(C(=O)NO)CCN(C(=O)c3cccnc3)CC2)cc1 [Example 49, 4-({[4-(But-2-ynyloxy)phenyl]sulfonyl}methyl)-N-hydroxy-1-(pyridin-3-ylcarbonyl)piperidine-4-carboxamide triflouroacetic acid salt]	7.49	5.76	
CC#CCOc1ccc(S(=O)(=O)CC2(C(=O)NO)CCN(C(=O)c3ccccc3)CC2)cc1 [Example 50, 1-Benzoyl-4-({[4-(but-2-ynyloxy)phenyl]sulfonyl}-methyl)-N-hydroxypiperidine-4-carboxamide]		6.45	
CC#CCOc1ccc(S(=O)(=O)CC2(C(=O)NO)CCN(C(=O)NCC)CC2)cc1 [Example 52, 4-({[4-(But-2-ynyloxy)phenyl]sulfonyl}methyl)-N-1-ethyl-N-4-hydroxypiperidine-1,4-dicarboxamide]	7.38	5.43	
CC#CCOc1ccc(S(=O)(=O)CC2(C(=O)NO)CCN(C(=O)Nc3ccccc3)CC2)cc1 [Example 53, 4-({[4-(But-2-ynyloxy)phenyl]sulfonyl}methyl)-N-4-hydroxy-N-1-phenyl-piperidine-1,4-dicarboxamide]	7.68	5.93	
CC#CCOc1ccc(S(=O)(=O)CC2(C(=O)NO)CCN(C(=O)N(CC)CC)CC2)cc1 [Example 54, 4-({[4-(But-2-ynyloxy)phenyl]sulfonyl}methyl)-N-1-,N-1-diethyl-N-4-hydroxypiperidine-1,4-dicarboxamide]	7.49	6.98	
CC#CCOc1ccc(S(=O)(=O)CC2(C(=O)NO)CCN(C(=O)N3CCOCC3)CC2)cc1 [Example 55, 4-({[4-(But-2-ynyloxy)phenyl]sulfonyl}methyl)-N-hydroxy-1-(morpholin-4-ylcarbonyl)piperdine-4-carboxamide]	7.15	6.22	
CC#CCOc1ccc(S(=O)(=O)CC2(C(=O)NO)CCN(S(=O)(=O)c3ccccc3)CC2)cc1 [Example 59, 4-({[4-(But-2-ynyloxy)phenyl]sulfonyl}methyl)-N-hydroxyl-(phenylsulfonyl)piperidine-4-carboxamide]	7.27	7.95	
CC#CCOc1ccc(S(=O)(=O)CC2(C(=O)NO)CCN(C(=O)CNCc3ccccc3)CC2)cc1 [Example 61, 1-[2-(Benzylamino)acetyl]-4-({[4-(but-2-ynyloxy)phenyl]sulfonyl}methyl)-N-hydroxypiperidine-4-carboxamide]	7.25	6.24	

Second part, led by results:

pIC50 [1]	pIC50 (MMP-13)	SMILES	other results
	5.83	CC#CCOc1ccc(SC2(C(=O)NO)CCN(Cc3ccc(Br)cc3)CC2)cc1 [Example 16, 1-(4-Bromo-benzyl)-4-(4-but-2-ynyloxy-phenylsulfanyl)-piperidine-4-carboxylic acid hydroxyamide]	inhibition at 1 µM [1]: 46%; pIC50 (MMP-9; read-out: MMP9 IC50): 5.69
6.98		CC#CCOc1ccc(S(=O)(=O)CC2(C(=O)NO)CCN(CC)CC2)cc1 [Example 46, 4-({[4-(But-2-ynyloxy)phenyl]sulfonyl}methyl)-1-ethyl-N-hydroxypiperidine-4-carboxamide triflouroacetic acid salt]	MMP13 % inhibition (MMP-13): 55.6%
6.64	6.56	CC#CCOc1ccc(S(=O)(=O)CC2(C(=O)NO)CCN(Cc3ccc(Cl)s3)CC2)cc1 [Example 47, 4-({[4-(But-2-ynyloxy)phenyl]sulfonyl}methyl)-1-[(5-chlorothien-2-yl)methyl]-N-hydroxypiperidine-4-carboxamide triflouroacetic acid salt]	
	8.49	CC#CCOc1ccc(S(=O)(=O)CC2(C(=O)NO)CCN(C(=O)N(C)c3ccccc3)CC2)cc1 [Example 56, 4-({[4-(But-2-ynyloxy)phenyl]sulfonyl}methyl)-N-4-hydroxy-N-1-methyl-N-1-phenylpiperidine-1,4-dicarboxamide]	
6.16	6.34	CC#CCOc1ccc(S(=O)(=O)CC2(C(=O)NO)CCN(C(=O)OCCCCCCCC)CC2)cc1 [Example 57, Octyl-4-({[4-(but-2-ynyloxy)phenyl]sulfonyl}methyl)-4-[(hydroxyamino)-carbonyl]piperidine-1-carboxylate]	
7.68	6.75	CC#CCOc1ccc(S(=O)(=O)CC2(C(=O)NO)CCN(C(=O)Oc3ccc(OC)cc3)CC2)cc1 [Example 58, 4-Methoxyphenyl-4-({[4-(but-2-ynyloxy)phenyl]sulfonyl}methyl)-4-[(hydroxyamino)carbonyl]piperidine-1-carboxylate]	
7.42	8.10	CC#CCOc1ccc(S(=O)(=O)CC2(C(=O)NO)CCN(S(=O)(=O)c3cn(C)cn3)CC2)cc1 [Example 60, 4-({[4-(But-2-ynyloxy)phenyl]sulfonyl}methyl)-N-hydroxy-1-1-[(1-methyl-1H-imidazol-4-yl)-sulfonyl]piperidine-4-carboxamide]	
7.18	5.65	CC#CCOc1ccc(S(=O)(=O)CC2(C(=O)NO)CCN(C(=O)CN3CCN(C)CC3)CC2)cc1 [Example 63, 4-({[4-(But-2-ynyloxy)phenyl]sulfonyl}methyl)-N-hydroxy-1-[2-(4-methylpiperazin-1-yl)acetyl]piperidine-4-carboxamide]	
